Test results: ChEMBL document CHEMBL1151757, “Synthesis, radiosynthesis, and biological evaluation of fluorine-18-labeled 2beta-carbo(fluoroalkoxy)-3beta-(3'-((Z)-2-haloethenyl)phenyl)nortropanes: candidate radioligands for in vivo imaging of the serotonin transporter with positron emission tomography” (J Med Chem, 2008)

Key:
[1] = Drug uptake in anesthetized cynomolgus monkey brain occipital lobe after 155 mins postinjection; format: ADME, organism-based, Macaca fascicularis; conditions: in vivo
Midbrain [2] = test: Drug uptake in anesthetized cynomolgus monkey brain midbrain after 0.5 mins postinjection; format: ADME, organism-based, Macaca fascicularis; set-up: unit not given here; conditions: in vivo
Putamen [3] = test: Drug uptake in anesthetized cynomolgus monkey brain putamen after 15.5 mins postinjection; format: ADME, organism-based, Macaca fascicularis; set-up: unit not given here; conditions: in vivo
[4] = Ratio of drug uptake in caudate to cerebellum in anesthetized cynomolgus monkey after 155 mins postinjection; format: ADME, organism-based, Macaca fascicularis; conditions: in vivo
[5] = Drug uptake in anesthetized cynomolgus monkey brain occipital lobe after 85 mins postinjection; format: ADME, organism-based, Macaca fascicularis; conditions: in vivo
Midbrain [6] = test: Drug uptake in anesthetized cynomolgus monkey brain midbrain after 225 mins postinjection; format: ADME, organism-based, Macaca fascicularis; conditions: in vivo, 3.75 h
[7] = Drug uptake in anesthetized cynomolgus monkey brain frontal lobe after 65 mins postinjection; format: ADME, organism-based, Macaca fascicularis; conditions: in vivo
[8] = Ratio of drug uptake in medulla to cerebellum in anesthetized cynomolgus monkey after 195 mins postinjection; format: ADME, organism-based, Macaca fascicularis; conditions: in vivo, 3.25 h
Medulla [9] = test: Drug uptake in anesthetized cynomolgus monkey brain medulla after 35 mins postinjection; format: ADME, organism-based, Macaca fascicularis; conditions: in vivo
Putamen [10] = test: Drug uptake in anesthetized cynomolgus monkey brain putamen after 115 mins postinjection; format: ADME, organism-based, Macaca fascicularis; set-up: unit not given here; conditions: in vivo
[11] = Drug uptake in anesthetized cynomolgus monkey brain frontal lobe after 2.5 mins postinjection; format: ADME, organism-based, Macaca fascicularis; conditions: in vivo
[12] = Drug uptake in anesthetized cynomolgus monkey brain frontal lobe after 22.5 mins postinjection; format: ADME, organism-based, Macaca fascicularis; conditions: in vivo, 0.375 h
Medulla [13] = test: Drug uptake in anesthetized cynomolgus monkey brain medulla after 175 mins postinjection; format: ADME, organism-based, Macaca fascicularis; conditions: in vivo
Caudate [14] = test: Drug uptake in anesthetized cynomolgus monkey brain caudate after 65 mins postinjection; format: ADME, organism-based, Macaca fascicularis, Caudate nucleus; conditions: in vivo
[15] = Ratio of drug uptake in frontal lobe to cerebellum in anesthetized cynomolgus monkey after 95 mins postinjection; format: ADME, organism-based, Macaca fascicularis; conditions: in vivo
Caudate [16] = test: Drug uptake in anesthetized cynomolgus monkey brain caudate after 12.5 mins postinjection; format: ADME, organism-based, Macaca fascicularis, Caudate nucleus; conditions: in vivo
[17] = Ratio of drug uptake in putamen to cerebellum in anesthetized cynomolgus monkey after 9.5 mins postinjection; format: ADME, organism-based, Macaca fascicularis; conditions: in vivo
[18] = Ratio of drug uptake in medulla to cerebellum in anesthetized cynomolgus monkey after 135 mins postinjection; format: ADME, organism-based, Macaca fascicularis; conditions: in vivo, 2.25 h
Pons [19] = test: Drug uptake in anesthetized cynomolgus monkey brain pons after 175 mins postinjection; format: ADME, organism-based, Macaca fascicularis; conditions: in vivo
[20] = Ratio of drug uptake in medulla to cerebellum in anesthetized cynomolgus monkey after 12.5 mins postinjection; format: ADME, organism-based, Macaca fascicularis; conditions: in vivo
[21] = Ratio of drug uptake in caudate to cerebellum in anesthetized cynomolgus monkey after 55 mins postinjection; format: ADME, organism-based, Macaca fascicularis; conditions: in vivo
[22] = Drug uptake in anesthetized cynomolgus monkey brain cerebellum after 85 mins postinjection; format: ADME, organism-based, Macaca fascicularis; conditions: in vivo
Putamen [23] = test: Drug uptake in anesthetized cynomolgus monkey brain putamen after 12.5 mins postinjection; format: ADME, organism-based, Macaca fascicularis; set-up: unit not given here; conditions: in vivo
[24] = Drug uptake in anesthetized cynomolgus monkey brain occipital lobe after 115 mins postinjection; format: ADME, organism-based, Macaca fascicularis; conditions: in vivo
Pons [25] = test: Drug uptake in anesthetized cynomolgus monkey brain pons after 6.5 mins postinjection; format: ADME, organism-based, Macaca fascicularis; conditions: in vivo
[26] = Drug uptake in anesthetized cynomolgus monkey brain cerebellum after 2.5 mins postinjection; format: ADME, organism-based, Macaca fascicularis; conditions: in vivo
Pons [27] = test: Drug uptake in anesthetized cynomolgus monkey brain pons after 27.5 mins postinjection; format: ADME, organism-based, Macaca fascicularis; conditions: in vivo
[28] = Drug uptake in anesthetized cynomolgus monkey brain cerebellum after 15.5 mins postinjection; format: ADME, organism-based, Macaca fascicularis; conditions: in vivo
[29] = Drug uptake in anesthetized cynomolgus monkey brain cerebellum after 35 mins postinjection; format: ADME, organism-based, Macaca fascicularis; conditions: in vivo
Medulla [30] = test: Drug uptake in anesthetized cynomolgus monkey brain medulla after 4.5 mins postinjection; format: ADME, organism-based, Macaca fascicularis; conditions: in vivo, 0.075 h
[31] = Ratio of drug uptake in pons to cerebellum in anesthetized cynomolgus monkey after 145 mins postinjection; format: ADME, organism-based, Macaca fascicularis; conditions: in vivo
[32] = Ratio of drug uptake in frontal lobe to cerebellum in anesthetized cynomolgus monkey after 3.5 mins postinjection; format: ADME, organism-based, Macaca fascicularis; conditions: in vivo
Midbrain [33] = test: Drug uptake in anesthetized cynomolgus monkey brain midbrain after 175 mins postinjection; format: ADME, organism-based, Macaca fascicularis; conditions: in vivo
[34] = Drug uptake in anesthetized cynomolgus monkey brain cerebellum after 6.5 mins postinjection; format: ADME, organism-based, Macaca fascicularis; conditions: in vivo
[35] = Drug uptake in anesthetized cynomolgus monkey brain occipital lobe after 3.5 mins postinjection; format: ADME, organism-based, Macaca fascicularis; conditions: in vivo
[36] = Ratio of drug uptake in occipital lobe to cerebellum in anesthetized cynomolgus monkey after 125 mins postinjection; format: ADME, organism-based, Macaca fascicularis; conditions: in vivo
[37] = Ratio of drug uptake in pons to cerebellum in anesthetized cynomolgus monkey after 175 mins postinjection; format: ADME, organism-based, Macaca fascicularis; conditions: in vivo
[38] = Ratio of drug uptake in midbrain to cerebellum in anesthetized cynomolgus monkey after 85 mins postinjection; format: ADME, organism-based, Macaca fascicularis; conditions: in vivo
[39] = Ratio of drug uptake in occipital lobe to cerebellum in anesthetized cynomolgus monkey after 205 mins postinjection; format: ADME, organism-based, Macaca fascicularis; conditions: in vivo
Midbrain [40] = test: Drug uptake in anesthetized cynomolgus monkey brain midbrain after 15.5 mins postinjection; format: ADME, organism-based, Macaca fascicularis; set-up: unit not given here; conditions: in vivo
Thalamus [41] = test: Drug uptake in anesthetized cynomolgus monkey brain thalamus after 185 mins postinjection; format: ADME, organism-based, Macaca fascicularis; conditions: in vivo
Thalamus [42] = test: Drug uptake in anesthetized cynomolgus monkey brain thalamus after 65 mins postinjection; format: ADME, organism-based, Macaca fascicularis; set-up: unit not given here; conditions: in vivo
Putamen [43] = test: Drug uptake in anesthetized cynomolgus monkey brain putamen after 175 mins postinjection; format: ADME, organism-based, Macaca fascicularis; conditions: in vivo
Midbrain [44] = test: Drug uptake in anesthetized cynomolgus monkey brain midbrain after 2.5 mins postinjection; format: ADME, organism-based, Macaca fascicularis; set-up: unit not given here; conditions: in vivo
[45] = Drug uptake in anesthetized cynomolgus monkey brain frontal lobe after 125 mins postinjection; format: ADME, organism-based, Macaca fascicularis; conditions: in vivo
[46] = Drug uptake in anesthetized cynomolgus monkey brain cerebellum after 135 mins postinjection; format: ADME, organism-based, Macaca fascicularis; conditions: in vivo, 2.25 h
Caudate [47] = test: Drug uptake in anesthetized cynomolgus monkey brain caudate after 0.5 mins postinjection; format: ADME, organism-based, Macaca fascicularis, Caudate nucleus; conditions: in vivo
Midbrain [48] = test: Drug uptake in anesthetized cynomolgus monkey brain midbrain after 95 mins postinjection; format: ADME, organism-based, Macaca fascicularis; set-up: unit not given here; conditions: in vivo
Putamen [49] = test: Drug uptake in anesthetized cynomolgus monkey brain putamen after 205 mins postinjection; format: ADME, organism-based, Macaca fascicularis; conditions: in vivo
[50] = Ratio of drug uptake in putamen to cerebellum in anesthetized cynomolgus monkey after 0.5 mins postinjection; format: ADME, organism-based, Macaca fascicularis; conditions: in vivo
[51] = Drug uptake in anesthetized cynomolgus monkey brain frontal lobe after 225 mins postinjection; format: ADME, organism-based, Macaca fascicularis; conditions: in vivo, 3.75 h
[52] = Ratio of drug uptake in occipital lobe to cerebellum in anesthetized cynomolgus monkey after 195 mins postinjection; format: ADME, organism-based, Macaca fascicularis; conditions: in vivo, 3.25 h
Putamen [53] = test: Drug uptake in anesthetized cynomolgus monkey brain putamen after 155 mins postinjection; format: ADME, organism-based, Macaca fascicularis; conditions: in vivo
[54] = Drug uptake in anesthetized cynomolgus monkey brain occipital lobe after 235 mins postinjection; format: ADME, organism-based, Macaca fascicularis; conditions: in vivo
[55] = Drug uptake in anesthetized cynomolgus monkey brain occipital lobe after 145 mins postinjection; format: ADME, organism-based, Macaca fascicularis; conditions: in vivo
[56] = Drug uptake in anesthetized cynomolgus monkey brain frontal lobe after 1.5 mins postinjection; format: ADME, organism-based, Macaca fascicularis; conditions: in vivo, 0.025 h
[57] = Ratio of drug uptake in medulla to cerebellum in anesthetized cynomolgus monkey after 35 mins postinjection; format: ADME, organism-based, Macaca fascicularis; conditions: in vivo
Medulla [58] = test: Drug uptake in anesthetized cynomolgus monkey brain medulla after 145 mins postinjection; format: ADME, organism-based, Macaca fascicularis; conditions: in vivo
Putamen [59] = test: Drug uptake in anesthetized cynomolgus monkey brain putamen after 45 mins postinjection; format: ADME, organism-based, Macaca fascicularis; set-up: unit not given here; conditions: in vivo, 0.75 h
[60] = Drug uptake in anesthetized cynomolgus monkey brain cerebellum after 155 mins postinjection; format: ADME, organism-based, Macaca fascicularis; conditions: in vivo
Midbrain [61] = test: Drug uptake in anesthetized cynomolgus monkey brain midbrain after 4.5 mins postinjection; format: ADME, organism-based, Macaca fascicularis; set-up: unit not given here; conditions: in vivo, 0.075 h
[62] = Drug uptake in anesthetized cynomolgus monkey brain cerebellum after 9.5 mins postinjection; format: ADME, organism-based, Macaca fascicularis; conditions: in vivo
[63] = Ratio of drug uptake in frontal lobe to cerebellum in anesthetized cynomolgus monkey after 195 mins postinjection; format: ADME, organism-based, Macaca fascicularis; conditions: in vivo, 3.25 h
Caudate [64] = test: Drug uptake in anesthetized cynomolgus monkey brain caudate after 22.5 mins postinjection; format: ADME, organism-based, Macaca fascicularis, Caudate nucleus; conditions: in vivo, 0.375 h
Caudate [65] = test: Drug uptake in anesthetized cynomolgus monkey brain caudate after 135 mins postinjection; format: ADME, organism-based, Macaca fascicularis, Caudate nucleus; conditions: in vivo, 2.25 h
Pons [66] = test: Drug uptake in anesthetized cynomolgus monkey brain pons after 85 mins postinjection; format: ADME, organism-based, Macaca fascicularis; conditions: in vivo
[67] = Ratio of drug uptake in medulla to cerebellum in anesthetized cynomolgus monkey after 95 mins postinjection; format: ADME, organism-based, Macaca fascicularis; conditions: in vivo

O=C(OCCC[18F])C1C2CCC(CC1c1cccc(/C=C\I)c1)N2 (configuration not stated)
Drug uptake [1]: 2.63 | Drug uptake (Midbrain [2]): 0.01 | Drug uptake (Putamen [3]): 4.27 | Ratio [4]: 1.4 | Drug uptake [5]: 3.52 | Drug uptake (Midbrain [6]): 3.76 | Drug uptake [7]: 2.77 | Ratio [8]: 1.7 | Drug uptake (Medulla [9]): 5.04 | Drug uptake (Putamen [10]): 4.44 | Drug uptake [11]: 0.5 | Drug uptake [12]: 2.64 | Drug uptake (Medulla [13]): 4.08 | Drug uptake (Caudate [14]): 3.99 | Ratio [15]: 0.8 | Drug uptake (Caudate [16]): 3 | Ratio [17]: 0.9 | Ratio [18]: 1.7 | Drug uptake (Pons [19]): 3.41 | Ratio [20]: 1 | Ratio [21]: 0.9 | Drug uptake [22]: 3.6 | Drug uptake (Putamen [23]): 4.08 | Drug uptake [24]: 3.09 | Drug uptake (Pons [25]): 2.85 | Drug uptake [26]: 1.12 | Drug uptake (Pons [27]): 4.39 | Drug uptake [28]: 4.75 | Drug uptake [29]: 4.74 | Drug uptake (Medulla [30]): 2.58 | Ratio [31]: 1.6 | Ratio [32]: 0.4 | Drug uptake (Midbrain [33]): 4.1 | Drug uptake [34]: 3.91 | Drug uptake [35]: 1.29 | Ratio [36]: 1.1 | Ratio [37]: 1.4 | Ratio [38]: 1.4 | Ratio [39]: 1.2 | Drug uptake (Midbrain [40]): 4.45 | Drug uptake (Thalamus [41]): 3.29 | Drug uptake (Thalamus [42]): 4.79 | Drug uptake (Putamen [43]): 3.61 | Drug uptake (Midbrain [44]): 0.98 | Drug uptake [45]: 2.54 | Drug uptake [46]: 2.66 | Drug uptake (Caudate [47]): 0.01 | Drug uptake (Midbrain [48]): 4.77 | Drug uptake (Putamen [49]): 3.31 | Ratio [50]: 1.5 | Drug uptake [51]: 1.82 | Ratio [52]: 1.1 | Drug uptake (Putamen [53]): 3.8 | Drug uptake [54]: 1.99 | Drug uptake [55]: 2.82 | Drug uptake [56]: 0.16 | Ratio [57]: 1.1 | Drug uptake (Medulla [58]): 4.24 | Drug uptake (Putamen [59]): 5.05 | Drug uptake [60]: 2.32 | Drug uptake (Midbrain [61]): 2.42 | Drug uptake [62]: 4.24 | Ratio [63]: 0.9 | Drug uptake (Caudate [64]): 3.53 | Drug uptake (Caudate [65]): 3.34 | Drug uptake (Pons [66]): 4.12 | Ratio [67]: 1.4
